C1OCOCO1
solubility (mole fraction)
Settings | in dimethoxymethane | in ethanol | in isopropanol | in methanol
288.15 K | 0.32 | 0.136 | 0.17 | 0.167
293.15 K | 0.371 | 0.175 | 0.213 | 0.21
297.15 K | 0.416 | – | – | –
298.15 K | – | 0.228 | 0.268 | 0.26
300.15 K | 0.452 | – | – | –
303.15 K | 0.489 | 0.29 | 0.331 | 0.318
306.15 K | 0.527 | – | – | –
308.15 K | – | 0.362 | 0.417 | 0.398
309.15 K | 0.567 | – | – | –
312.15 K | 0.608 | – | – | –
313.15 K | – | 0.457 | 0.511 | 0.517
318.15 K | – | 0.591 | 0.643 | 0.645
321.15 K | – | – | – | 0.8
323.15 K | – | 0.74 | 0.793 | –
328.15 K | – | 0.913 | 0.945 | –

Reference: BigSolDB 2.1
